The text below walks through data of patent publication US7186695B2 (priority 2001, dated 2007).

For series [1], the system named is BCE cells. In words: Proliferation and viability of cultured cells, 72 hr, cell count. The format is cell-based, bovine. The following applies: for IC50: Bos taurus, 72 h, BCE. On the procedure: FIG. 18. Inhibition of proliferation and reduction in viability of BCE cells by GSAO. 15,000 (part A and B) or 50,000 (part C and D) BCE cells per well were seeded into gelatinised 24-well culture plates and allowed to attach for 24 hr (part A, B and D) or 72 hr (part C). The media was then replaced with DMEM containing 5% BCS and 0 to 1 mM GSAO or GSM and either 1 ng per mL FGF-2 (part A) or 10 ng per mL VEGF (part B). In part D, the media was replaced with DMEM containing 5% BCS and 1 ng per mL FGF-2 and either 10 μM GSAO or GSM. In part C, the media was replaced with DMEM containing 5% BCS and 0 to 1 mM GSAO or GSAA. Cells were cultured for 72 hr in parts A, B and C or for discrete times up to 48 hr in part D and then dispersed and counted. The dotted line in parts A, B and C indicate the cell number in control wells containing DMEM and 5% BCS which represented no to limited proliferation. The dotted line in part D represents no change in cell number over the 48 hr. The data points and errors represent the mean and range of duplicate wells.
(§1) BCE (Folkman et al. 1979), BAE, BxPC-3 (ATCC, Bethesda, Md.), HT1080 (Jiang et al., 1999), 3T3 (ATCC, Bethesda, Md.) and BVSM (Hogg et al., 1997) cells were harvested and cultured as indicated. Cells (0.5 mL of 30,000 or 100,000 cells per mL) were seeded into gelatinized 24-well culture plates (Corning Costar, Corning, N.Y.) in Dulbecco's Modified Eagle's Medium (DMEM, JHR Bioscience, Lenexa, Kans.) containing 10% fetal calf serum (FCS, Intergen Comp., Purchase, N.Y.) and 1% Glutamine Pen-Strep (GPS, Irvine Scientific, Santa Ana, Va.) and allowed to attach for 24 hr in 10% CO2 at 37° C. The media was then replaced with DMEM and 1% GPS containing 0 to 1 mM GSAO or GSAA and either 5% bovine calf serum (BCS, HyClone, Logan, Utah) and 1 ng per mL FGF-2 (Genzyme, Cambridge, Mass.) or 5% BCS and 10 ng per mL VEGF (Genzyme, Cambridge, Mass.) for BCE cells, 5% or 10% BCS for BAE cells, 5% BCS for BVSM cells, and 5% FCS for BxPC-3, HT1080 and 3T3 cells. Cells were cultured for 0 to 72 hr in 10% CO2 at 37° C. then dispersed in trypsin/EDTA (GibcoBRL, Granc Island, N.Y.), resuspended in Coulter balanced electrolyte solution and counted with a Z1 Coulter counter (Coulter Corp., Miami, Fla.). In all experiments there were two control wells containing DMEM with 1% GPS and either 5% BCS for BCE cells, 2% BCS for BAE and BVSM cells, or 2% FCS for BxPC-3, HT1080 and 3T3 cells. These wells represented no to limited proliferation.

The subject of series [2] is BxPC-3 cells. The series is described as above. The format is cell-based, human. On the procedure:
(§2) FIG. 19. Effect of GSAO on Proliferation of non-endothelial cells. 15,000 BxPC-3 (part A), HT1080 (part B), 3T3 (part C) or BVSM (part D) cells per well were seeded into gelatinised 24-well culture plates and allowed to attach for 24 hr. The media was then replaced with DMEM containing 0 to 1 mM GSAO or GSAA and either 5% BCS (part D) or 5% FCS (parts A, B and C). Cells were cultured for 72 hr and then dispersed and counted. The dotted lines indicate the cell number in control wells containing DMEM and 2% BCS (part D) or 2% FCS (parts A, B and C) which represented no to limited proliferation. The data points and errors represent the mean and range of duplicate wells.
as §1

In series [3] the test system is HT1080 cells. The series is described as above. In kind it is cell-based, human. On the procedure: as §2, §1
In series [4] the test system is BVSM cells. Described as above. The format is cell-based, bovine. On the procedure: as §2, §1
In series [5] the test system is 3T3 fibroblasts. Described as above. The format is cell-based, murine. On the procedure: as §2, §1
The test system of series [6] is chick chorioallantoic membrane (CAM) angiogenesis. The experiment in a line: Chick chorioallantoic membrane (CAM) angiogenesis assay. In kind it is in vivo. The note with it: 5, 10 or 50 μg per pellet, 48 hr. On the procedure: FIG. 22. Inhibition of CAM angiogenesis by GSAO. Fertilised 3 day-old white Leghorn eggs were cracked, the embryos placed in petri dishes and incubated for 3 days. Methylcellulose discs containing 5, 10 or 50 μg of either GSAA or GSAO were then applied to the CAM of individual embryos and incubated for 48 hr. The CAMs were scored for no obvious effect or inhibition of angiogenesis as defined by avascular zones. Photographs of CAM's after incubation with discs containing 10 μg of either GSM (top) or GSAO (bottom) is shown in the left hand panel. The dotted circle indicates the placement of the disc.
The chick CAM assay has been used for the detection and analysis of angiogenesis inhibition (Nguyen et al., 1994). Fertilised 3 day-old white Leghorn eggs (Spafas, Norwich, Conn.) were cracked, the embryos with intact yolks placed in 20×100 mm petri dishes and incubated for 3 days at 37° C. and 3% CO2 (Folkman, 1995). Methylcellulose (Fisher Scientific, Fair Lawn, N.J.) discs containing 5, 10 or 50 μg of either GSAA or GSAO were then applied to the CAM of individual embryos and incubated for 48 hr at 37° C. and 3% CO2. The discs were made by desiccation of GSAA or GSAO in 10 μl of 0.45% methycellulose on teflon rods. The CAMs were observed using a stereomicroscope and scored for no obvious effect or inhibition of CAM angiogenesis as defined by avascular zones. On some occasions CAM blood vessels were injected with India ink and photographed.

Entries after “also recorded” stand apart in the source; their conditions may differ. Like-named read-outs stand apart in the source and are kept apart here.

For the compound `N[C@@H](CCC(=O)N[C@@H](CSCC(=O)Nc1ccc([As](=O)(O)O)cc1)C(=O)NCC(=O)O)C(=O)O` [GSAA, 4-(N-(S-glutathionylacetyl)amino)phenylarsonic acid, reference compound], the “effect on viability of BCE cells” value in series [1] (0 to 1 mM) is on record as “no significant effect”. In addition, the “effect on proliferation of BCE cells” value in series [1] (highest concentration used, 1 mM) was “only a marginal effect”. Further, the “effect on proliferation or viability” value in series [2] (BxPC-3, up to a concentration of 1 mM) was “no significant effect”; in series [3] (HT1080, up to a concentration of 1 mM) it was “no significant effect”; in series [4] (up to a concentration of 1 mM), “no significant effect”; in series [5] (3T3, up to a concentration of 1 mM), “no significant effect”. The “adverse effect on the wellbeing of the chick embryo” value in series [6] is recorded as “Neither GSAA nor GSAO had any apparent adverse effect”. The “inhibition of CAM angiogenesis (avascular zones)” value in series [6] is “did not inhibit CAM angiogenesis”; in series [6] (listed as GSM), “no effects”.
For `NC(CCC(=O)NC(CSCC(=O)Nc1ccc([As]=O)cc1)C(=O)NCC(=O)O)C(=O)O` (stereo not drawn) [GSAO, 4-(N-(S-glutathionylacetyl)amino)-phenylarsenoxide], the “decrease in viability of BCE cells over time” value in series [1] (10 μM GSAO, after 8 hours) is “no decrease in viability”. The IC50 in series [1] (5% BCS + 1 ng/mL FGF-2, 72 hr, read-out: Proliferation IC50) is approximately 100 nM; in series [1] (5% BCS + 1 ng/mL FGF-2, >90% confluent, 72 hr, read-out: Viability IC50), approximately 10000 nM; in series [1] (5% BCS + 10 ng/mL VEGF, 72 hr, read-out: Proliferation IC50), approximately 50 nM; in series [1] (5% BCS + 10 ng/mL VEGF, >90% confluent, 72 hr, read-out: Viability IC50) it was approximately 3000 nM; in series [2] (Homo sapiens, BXPC-3, BxPc3, 5% FCS, 72 hr), approximately 40 µM; in series [3] (Homo sapiens, HT-1080, HT1080, 5% FCS, 72 hr), approximately 40 µM. Moreover, the IC50 in series [4] (Bos taurus, 5% BCS, 72 hr) is approximately 40 µM; in series [5] (Mus musculus, Fibroblast, 3T3, 5% FCS, 72 hr), approximately 40 µM. Besides, the “Proliferation IC50” value in series [2] (BxPc3, 5% FCS, 72 hr) was “did not affect the proliferation; also recorded: No effect”; in series [3] (HT1080, 5% FCS, 72 hr) it was “did not affect the proliferation; also recorded: No effect”; in series [4] (5% BCS, 72 hr), “did not affect the proliferation; also recorded: No effect”; in series [5] (3T3, 5% FCS, 72 hr), “did not affect the proliferation; also recorded: No effect”. The “adverse effect on the wellbeing of the chick embryo” value in series [6] was “Neither GSAA nor GSAO had any apparent adverse effect”. Further, the “inhibition of CAM angiogenesis (avascular zones)” value in series [6] was “inhibited angiogenesis in the CAM in a concentration-dependent manner”.
